The structures appear in SMILES notation.

For the data set, the target named is ABCB1 (P-glycoprotein) (Homo sapiens, UniProt P08183). The data set can be described thus: TP_TRANSPORTER: efflux in Doxorubicin resistant K562 cells.
ABCB1 (P-glycoprotein), sequence (P08183 whole entry): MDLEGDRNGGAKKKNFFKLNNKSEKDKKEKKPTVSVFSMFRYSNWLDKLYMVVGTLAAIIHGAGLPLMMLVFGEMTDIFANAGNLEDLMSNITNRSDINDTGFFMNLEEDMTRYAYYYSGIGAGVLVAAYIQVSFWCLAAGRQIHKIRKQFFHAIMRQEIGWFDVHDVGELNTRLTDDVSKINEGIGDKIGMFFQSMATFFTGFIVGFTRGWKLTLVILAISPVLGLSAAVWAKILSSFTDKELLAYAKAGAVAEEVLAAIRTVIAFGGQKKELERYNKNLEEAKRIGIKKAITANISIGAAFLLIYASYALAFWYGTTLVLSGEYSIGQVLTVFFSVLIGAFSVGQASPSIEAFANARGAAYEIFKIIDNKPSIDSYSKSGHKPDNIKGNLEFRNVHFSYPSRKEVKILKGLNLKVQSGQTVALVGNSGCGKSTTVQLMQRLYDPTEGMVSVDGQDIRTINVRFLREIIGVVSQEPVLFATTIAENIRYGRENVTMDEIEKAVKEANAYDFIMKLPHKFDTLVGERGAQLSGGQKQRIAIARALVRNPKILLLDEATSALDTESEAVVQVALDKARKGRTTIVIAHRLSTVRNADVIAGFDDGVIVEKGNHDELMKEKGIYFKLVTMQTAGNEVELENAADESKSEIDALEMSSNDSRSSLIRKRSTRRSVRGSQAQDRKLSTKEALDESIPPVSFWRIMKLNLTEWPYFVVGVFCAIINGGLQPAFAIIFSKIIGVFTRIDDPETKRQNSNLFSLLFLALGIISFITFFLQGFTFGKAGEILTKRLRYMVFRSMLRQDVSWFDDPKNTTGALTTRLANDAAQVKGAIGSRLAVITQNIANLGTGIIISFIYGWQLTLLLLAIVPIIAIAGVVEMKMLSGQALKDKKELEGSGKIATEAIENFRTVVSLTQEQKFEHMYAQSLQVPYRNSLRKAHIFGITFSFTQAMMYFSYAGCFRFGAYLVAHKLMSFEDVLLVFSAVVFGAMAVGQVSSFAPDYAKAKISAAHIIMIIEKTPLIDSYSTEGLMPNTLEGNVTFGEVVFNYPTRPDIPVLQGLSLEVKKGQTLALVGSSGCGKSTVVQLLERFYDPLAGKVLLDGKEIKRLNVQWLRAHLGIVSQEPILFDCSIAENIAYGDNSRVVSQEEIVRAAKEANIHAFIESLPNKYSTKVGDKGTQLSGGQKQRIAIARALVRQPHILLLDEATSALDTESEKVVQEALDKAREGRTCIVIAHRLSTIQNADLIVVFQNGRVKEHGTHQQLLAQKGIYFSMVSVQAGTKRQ

As usually defined, the Km is the substrate concentration at which the rate is half of its maximum. Regarding `COc1cccc2c1C(=O)c1c(O)c3c(c(O)c1C2=O)C[C@@](O)(C(=O)CO)C[C@@H]3O[C@H]1C[C@H](O)[C@H](O)[C@H](C)O1` [HYDROXYRUBICIN], the Km stood at 2 µM.

These data come from ChEMBL document CHEMBL2074063, “P-glycoprotein-mediated efflux of hydroxyrubicin, a neutral anthracycline derivative, in resistant K562 cells” (FEBS Lett, 1994).
